The series can be described thus: Retention in stomach, 123I label, single-photon emission computed tomography. It counts as in vivo. As to conditions: mice, 24 hours after feeding, 123I labeled, SPECT (FIG. 3). The source says:
Then, in order to examine the retention time of the present drug structure in stomach, sample B of embodiment 1 was labeled with radioactive Iodine 123 (^123I) and fed to experimental mice. Single-photon emission computed tomography was respectively conducted at 1st, 4th, and 24th hour after feeding to observe the location of the present drug structure inside the mice's bodies.

Take `CC1(C)S[C@@H]2[C@H](NC(=O)[C@H](N)c3ccc(O)cc3)C(=O)N2[C@H]1C(=O)O` [amoxicillin]: the “presence in stomach after feeding” value is “had no longer existed in the stomach after 24 hours”.

The values are drawn from patent US20140356433A1, “Pharmaceutical Carrier and Drug Structure Using the Same” (priority 2013, published 2014).
